From patent US20050208058A1, “Compositions and methods for modulating cell division” (priority 2003, published 2005)
d = 2'-deoxy (DNA)

Tests used:
Type in all cases: cell-based, human
RPE cells [1] = assay: BrDU incorporation after siRNA treatment and nocodazole synchronization; conditions: relative to control cells (siRNA to lamin), after nocodazole release; FIG. 2A
Description: (§1) To further study the effects of silencing centrosomal genes, the following cell cycle experiments were performed using RPE cells. In immunofluorescence experiments, cells were delivered by OLIGOFECTAMINE in a media solution containing between 1-100 nanomolar concentration of siRNAs. After 4 hours of incubation with lipofectamine, cells were washed, and cell cycle progression was assayed by (i) treating cells with 5-Bromo-2′-deoxyuridine (BrDU from Sigma, St Louis, Mo.) for 24 hours and staining for BrDU or (ii) staining cells with antibody to Ki-67 (BD Biosciences) according to manufacturer's instructions. BrDU treatment and staining were performed as follows: after 50-70 hours incubation with siRNA, BrDU was added to cells at a final concentration of 5 μg/ml. Cells were fixed in −20° C. methanol and then treated with 2N HCL at 22° C. for 30 minutes, incubated with 1:500 mouse anti-BrdU antibody (Becton Dickinson, Palo Alto, Calif.), and labeled with 1:1,000 goat FITC-mouse antibody (Molecular Probes, Inc.). Cells were also treated with 4′,6-diamidino-2-phenylindole (DAPI) (Molecular Probes) according to the manufacturer's instructions. Cells were prepared, imaged, and the resulting images were deconvolved as described in Example 1.
Upon release from nocodazole treatment, proliferating cells typically resume cell cycle progression. Chromosomal DNA in the cells was imaged using DAPI (faint ghost-like staining) and/or BrDU (brighter staining). Although DAPI can be used to visualize DNA at any stage of the cell cycle, BrDU is only incorporated into newly synthesized DNA only during S-phase. Thus, BrDU incorporation can be used as a marker of cells that progress through at least one S-phase of the cell cycle. Control cells in this experiment were treated with siRNA to lamin.

RPE cells [2] = assay: Ki-67 staining of siRNA-treated cells; conditions: vs silamin; FIG. 2B
Description: as §1
FIG. 2B confirms the results in FIG. 2A using a different immunofluorescence marker for cell cycle progression. […]

RPE cells [3] = assay: FACS of cells treated in tandem with two siRNAs (p53 dependence); conditions: tandem treatment silamin then siGCP2; FIG. 6A
Description: For flow cytometry (i.e., fluorescence-activated cell sorter or FACS) experiments, siRNAs were delivered to cells as described above, and were incubated for 50-70 hours. To synchronize cells, nocodazole was added to the cells to a concentration of 5 μg/mL for 12 hours. Cells were stained with propidium iodide and analyzed by flow cytometry (FACSCAN; Becton Dickinson) using FLOJO® software (Tree Star, Inc., Ashland, Oreg.).
(§2) A number of experiments were conducted to determine if p53 is required for the cell cycle arrest phenotype described herein. FACS analysis of tandem siRNA-treated cells was performed as described in Example 2. BrDU and DAPI imaging was performed as described in Example 2. Intracellular p53 was visualized using anti-p53 antibody that is specific for activated p53 (i.e., p53 phosphorylated at Serine 33) (“α-Pser33-p53” provided by Yoichi Taya and described in Kishis et al., J. Biol. Chem., 276:39115-3922, 2001)
In FIG. 6A each line tracing represents FACS data from cells treated in tandem with the siRNAs directed to the gene products indicated above the line. Cells were first treated with siRNA directed to the gene product to the left of the slash. Up to 24 hours later, siRNA directed to the gene product to the right of the slash was added. […] 12 hours before collecting the cells, nocodazole was added to the cells analyzed in the bottom three line tracings. […]

RPE cells [4] = assay: BrDU staining of cells treated in tandem with two siRNAs (p53 dependence); conditions: tandem treatment silaminin then indicated siRNA, vs silamin/silamin; FIG. 6B
Description: as §1, §2

Sequence: UCUCGUACUCCAGAAGACU (siRNA; RNA, 3' dTdT, backbone not given here) [siGCP2, siRNA directed to GCP2]
- incorporation of BrDU into chromosomal material (RPE cells [1]): clearly inhibited incorporation of BrDU
- cells expressing Ki67 (RPE cells [2]): Very few cells
- nocodazole shift from G1 peak to G2/M peak (RPE cells [3]): blocked
- cells incorporating BrDU (RPE cells [4]): substantially fewer
